Assay results from PubChem BioAssay (NCI).
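Method: 48-hour compound exposure of cells in 96-well plates, five concentrations, linear interpolation of endpoints. Abbreviation: GI50, concentration required for 50% inhibition of growth. TGI: concentration producing complete growth inhibition.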

Key:
Assay in all cases: NCI anticancer screen, dose series, 48 h
786-0 renal = test system: 786-0 renal
A498 renal = test system: A498 renal
A549 NSCLC = test system: A549 NSCLC
ACHN renal = test system: ACHN renal
BT-549 breast = test system: BT-549 breast
CAKI-1 renal = test system: CAKI-1 renal
CCRF-CEM leukemia = test system: CCRF-CEM leukemia
COLO 205 colon = test system: COLO 205 colon
DU-145 prostate = test system: DU-145 prostate
EKVX NSCLC = test system: EKVX NSCLC
HCC-2998 colon = test system: HCC-2998 colon
HCT-116 colon = test system: HCT-116 colon
HCT-15 colon = test system: HCT-15 colon
HL-60(TB) leukemia = test system: HL-60(TB) leukemia
HOP-62 NSCLC = test system: HOP-62 NSCLC
HOP-92 NSCLC = test system: HOP-92 NSCLC
HS 578T breast = test system: HS 578T breast
HT29 colon = test system: HT29 colon
IGROV1 ovarian = test system: IGROV1 ovarian
K-562 leukemia = test system: K-562 leukemia
KM12 colon = test system: KM12 colon
LOX IMVI melanoma = test system: LOX IMVI melanoma
M14 melanoma = test system: M14 melanoma
MALME-3M melanoma = test system: MALME-3M melanoma
MCF7 breast = test system: MCF7 breast
MDA-MB-231 breast = test system: MDA-MB-231 breast
MDA-MB-435 = test system: MDA-MB-435
MOLT-4 leukemia = test system: MOLT-4 leukemia
NCI-H226 lung = test system: NCI-H226 lung
NCI-H23 lung = test system: NCI-H23 lung
NCI-H460 lung = test system: NCI-H460 lung
NCI-H522 lung = test system: NCI-H522 lung
NCI/ADR-RES ovarian = test system: NCI/ADR-RES ovarian
OVCAR-3 ovarian = test system: OVCAR-3 ovarian
OVCAR-4 ovarian = test system: OVCAR-4 ovarian
OVCAR-5 ovarian = test system: OVCAR-5 ovarian
OVCAR-8 ovarian = test system: OVCAR-8 ovarian
PC-3 prostate = test system: PC-3 prostate
RPMI-8226 leukemia = test system: RPMI-8226 leukemia
RXF 393 renal = test system: RXF 393 renal
SF-268 CNS = test system: SF-268 CNS
SF-295 CNS = test system: SF-295 CNS
SF-539 CNS = test system: SF-539 CNS
SK-MEL-2 melanoma = test system: SK-MEL-2 melanoma
SK-MEL-28 melanoma = test system: SK-MEL-28 melanoma
SK-MEL-5 melanoma = test system: SK-MEL-5 melanoma
SK-OV-3 ovarian = test system: SK-OV-3 ovarian
SN12C renal = test system: SN12C renal
SNB-19 CNS = test system: SNB-19 CNS
SNB-75 CNS = test system: SNB-75 CNS
SR leukemia = test system: SR leukemia
SW-620 colon = test system: SW-620 colon
T-47D breast = test system: T-47D breast
TK-10 renal = test system: TK-10 renal
U251 CNS = test system: U251 CNS
UACC-257 melanoma = test system: UACC-257 melanoma
UACC-62 melanoma = test system: UACC-62 melanoma
UO-31 renal = test system: UO-31 renal

COC1=CC(c2ccc[nH]2)=N/C1=C\c1[nH]c(C)c(C(=O)OCc2ccccc2)c1C
GI50 (786-0 renal): 66.6 nM | TGI (786-0 renal): 1080 nM | GI50 (A498 renal): 169 nM | TGI (A498 renal): 1020 nM | GI50 (A549 NSCLC): 82.6 nM | TGI (A549 NSCLC): 4680 nM | GI50 (ACHN renal): 81 nM | TGI (ACHN renal): 1150 nM | GI50 (BT-549 breast): 253 nM | TGI (BT-549 breast): 3460 nM | GI50 (CAKI-1 renal): 48.3 nM | TGI (CAKI-1 renal): 1760 nM | GI50 (CCRF-CEM leukemia): 40.4 nM | TGI (CCRF-CEM leukemia): > 28300 nM | GI50 (COLO 205 colon): 165 nM | TGI (COLO 205 colon): 1480 nM | GI50 (DU-145 prostate): 91.7 nM | TGI (DU-145 prostate): 1920 nM | GI50 (EKVX NSCLC): 206 nM | TGI (EKVX NSCLC): 3640 nM | GI50 (HCC-2998 colon): 87 nM | TGI (HCC-2998 colon): 1710 nM | GI50 (HCT-116 colon): 32.1 nM | TGI (HCT-116 colon): 1160 nM | GI50 (HCT-15 colon): 33.3 nM | TGI (HCT-15 colon): 1090 nM | GI50 (HL-60(TB) leukemia): 328 nM | TGI (HL-60(TB) leukemia): 20200 nM | GI50 (HOP-62 NSCLC): 314 nM | TGI (HOP-62 NSCLC): 2770 nM | GI50 (HOP-92 NSCLC): 67.1 nM | TGI (HOP-92 NSCLC): 431 nM | GI50 (HS 578T breast): 80.4 nM | TGI (HS 578T breast): 662 nM | GI50 (HT29 colon): 35.9 nM | TGI (HT29 colon): 1270 nM | GI50 (IGROV1 ovarian): 286 nM | TGI (IGROV1 ovarian): 9000 nM | GI50 (K-562 leukemia): 85.5 nM | TGI (K-562 leukemia): 1460 nM | GI50 (KM12 colon): 52.5 nM | TGI (KM12 colon): 1520 nM | GI50 (LOX IMVI melanoma): 18.9 nM | TGI (LOX IMVI melanoma): 42 nM | GI50 (M14 melanoma): 44.8 nM | TGI (M14 melanoma): 817 nM | GI50 (MALME-3M melanoma): 495 nM | TGI (MALME-3M melanoma): 2100 nM | GI50 (MCF7 breast): 89.4 nM | TGI (MCF7 breast): 836 nM | GI50 (MDA-MB-231 breast): 37.9 nM | TGI (MDA-MB-231 breast): 325 nM | GI50 (MDA-MB-435): 55.7 nM | TGI (MDA-MB-435): 1310 nM | GI50 (MOLT-4 leukemia): 51.3 nM | TGI (MOLT-4 leukemia): 4610 nM | GI50 (NCI-H226 lung): 132 nM | TGI (NCI-H226 lung): 1520 nM | GI50 (NCI-H23 lung): 141 nM | TGI (NCI-H23 lung): 1740 nM | GI50 (NCI-H460 lung): 47.6 nM | TGI (NCI-H460 lung): 1200 nM | GI50 (NCI-H522 lung): 96.8 nM | TGI (NCI-H522 lung): 1150 nM | GI50 (NCI/ADR-RES ovarian): 71.4 nM | TGI (NCI/ADR-RES ovarian): 1360 nM | GI50 (OVCAR-3 ovarian): 62.1 nM | TGI (OVCAR-3 ovarian): 645 nM | GI50 (OVCAR-4 ovarian): 75.6 nM | TGI (OVCAR-4 ovarian): 5710 nM | GI50 (OVCAR-5 ovarian): 211 nM | TGI (OVCAR-5 ovarian): 1990 nM | GI50 (OVCAR-8 ovarian): 110 nM | TGI (OVCAR-8 ovarian): 1750 nM | GI50 (PC-3 prostate): 112 nM | TGI (PC-3 prostate): 20600 nM | GI50 (RPMI-8226 leukemia): 116 nM | TGI (RPMI-8226 leukemia): 1800 nM | GI50 (RXF 393 renal): 116 nM | TGI (RXF 393 renal): 1410 nM | GI50 (SF-268 CNS): 110 nM | TGI (SF-268 CNS): 1940 nM | GI50 (SF-295 CNS): 170 nM | TGI (SF-295 CNS): 827 nM | GI50 (SF-539 CNS): 111 nM | TGI (SF-539 CNS): 1540 nM | GI50 (SK-MEL-2 melanoma): 44.5 nM | TGI (SK-MEL-2 melanoma): 196 nM | GI50 (SK-MEL-28 melanoma): 353 nM | TGI (SK-MEL-28 melanoma): 1710 nM | GI50 (SK-MEL-5 melanoma): 47.6 nM | TGI (SK-MEL-5 melanoma): 177 nM | GI50 (SK-OV-3 ovarian): 824 nM | TGI (SK-OV-3 ovarian): 4860 nM | GI50 (SN12C renal): 84.9 nM | TGI (SN12C renal): 1880 nM | GI50 (SNB-19 CNS): 606 nM | TGI (SNB-19 CNS): 29200 nM | GI50 (SNB-75 CNS): 127 nM | TGI (SNB-75 CNS): 632 nM | GI50 (SR leukemia): 40.5 nM | TGI (SR leukemia): 885 nM | GI50 (SW-620 colon): 34.6 nM | TGI (SW-620 colon): 1210 nM | GI50 (T-47D breast): 252 nM | TGI (T-47D breast): 1600 nM | GI50 (TK-10 renal): 85.4 nM | TGI (TK-10 renal): 1910 nM | GI50 (U251 CNS): 61.6 nM | TGI (U251 CNS): 1260 nM | GI50 (UACC-257 melanoma): 316 nM | TGI (UACC-257 melanoma): 1830 nM | GI50 (UACC-62 melanoma): 57.9 nM | TGI (UACC-62 melanoma): 193 nM | GI50 (UO-31 renal): 144 nM | TGI (UO-31 renal): 336 nM
